Measured values taken from US20130040935A1, “CYCLIC KETO-ENOLS FOR THERAPY” (BAYER INTELLECTUAL PROPERTY GMBH, priority 2010, published 2013).
Like-named read-outs stand apart in the source and are kept apart here.

Legend:
MCF7 = experiment: Cell proliferation assay (CellTiter-Glo, 96 h), MCF7; assay type: cell-based; conditions: Homo sapiens, MCF7; Table 7; 96-hour incubation
Method: In accordance with the invention, the substances were tested in cell-based assays for the ability of the substances of inhibiting tumour cell proliferation after a 96-hour incubation with the substance. Cell viability was tested using the CellTiter-Glo® luminescent cell viability assay (Promega). The cells were sown at a density of 2000-5000 cells/well (depending on the cell line) in 100 μl growth medium on 96-well microtitre plates. For each cell line examined, cells were sown on a separate plate to determine the luminescence at t=0 hours and t=96 hours. After overnight incubation at 37° C., the luminescence values for the t=0 samples were determined. The dose plates for the t=96 hours points in time were treated with substances diluted with growth medium. The cells were then incubated at 37° C. for 96 hours, and the luminescence values for the t=96 hours sample were then determined. For data analysis, the t=0 values were subtracted from the t=96 hour values for treated and untreated samples. The differences in luminescence in percent between substance-treated samples and control values were used to determine the growth inhibition in percent.
The substances were tested in the following cell lines which represent the stated indications in an exemplary manner: […]

recombinant human ACC1 = recombinant human ACC1 (Homo sapiens, UniProt Q13085); experiment: Human ACC1 enzyme assay, Assay A1 (HTRF ADP immunoassay);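 further: ADP generated by the enzyme quantified via competitive time-resolved FRET, read as europium cryptate to d2 energy transfer after 1 h at 22 °C with labelled ADP tracer and anti-ADP antibody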
[1] = biological target: T1, human ACC1 (acetyl-coenzyme A carboxylase alpha transcript variant 1) (Homo sapiens, UniProt Q13085); experiment: Human ACC1 enzyme assay, Assay B1 (ADP-Glo); assay type: biochemical
T1 construct: FLAG (C); made in house; host or cells: baculovirus-infected insect cells (Hi5)

[2] = biological target: human ACC2 (acetyl-coenzyme A carboxylase 2) (Homo sapiens, UniProt O00763); experiment: Human ACC2 enzyme assay, Assay B2 (ADP-Glo);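 further: human ACC2 activity read as ADP product, detected by luciferase glow luminescence after residual ATP removal, enzyme near 2 ng/µl in linear range, detection steps at 22 °C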
Chain of human ACC2 (acetyl-coenzyme A carboxylase 2) (O00763 27-2458 limits assumed): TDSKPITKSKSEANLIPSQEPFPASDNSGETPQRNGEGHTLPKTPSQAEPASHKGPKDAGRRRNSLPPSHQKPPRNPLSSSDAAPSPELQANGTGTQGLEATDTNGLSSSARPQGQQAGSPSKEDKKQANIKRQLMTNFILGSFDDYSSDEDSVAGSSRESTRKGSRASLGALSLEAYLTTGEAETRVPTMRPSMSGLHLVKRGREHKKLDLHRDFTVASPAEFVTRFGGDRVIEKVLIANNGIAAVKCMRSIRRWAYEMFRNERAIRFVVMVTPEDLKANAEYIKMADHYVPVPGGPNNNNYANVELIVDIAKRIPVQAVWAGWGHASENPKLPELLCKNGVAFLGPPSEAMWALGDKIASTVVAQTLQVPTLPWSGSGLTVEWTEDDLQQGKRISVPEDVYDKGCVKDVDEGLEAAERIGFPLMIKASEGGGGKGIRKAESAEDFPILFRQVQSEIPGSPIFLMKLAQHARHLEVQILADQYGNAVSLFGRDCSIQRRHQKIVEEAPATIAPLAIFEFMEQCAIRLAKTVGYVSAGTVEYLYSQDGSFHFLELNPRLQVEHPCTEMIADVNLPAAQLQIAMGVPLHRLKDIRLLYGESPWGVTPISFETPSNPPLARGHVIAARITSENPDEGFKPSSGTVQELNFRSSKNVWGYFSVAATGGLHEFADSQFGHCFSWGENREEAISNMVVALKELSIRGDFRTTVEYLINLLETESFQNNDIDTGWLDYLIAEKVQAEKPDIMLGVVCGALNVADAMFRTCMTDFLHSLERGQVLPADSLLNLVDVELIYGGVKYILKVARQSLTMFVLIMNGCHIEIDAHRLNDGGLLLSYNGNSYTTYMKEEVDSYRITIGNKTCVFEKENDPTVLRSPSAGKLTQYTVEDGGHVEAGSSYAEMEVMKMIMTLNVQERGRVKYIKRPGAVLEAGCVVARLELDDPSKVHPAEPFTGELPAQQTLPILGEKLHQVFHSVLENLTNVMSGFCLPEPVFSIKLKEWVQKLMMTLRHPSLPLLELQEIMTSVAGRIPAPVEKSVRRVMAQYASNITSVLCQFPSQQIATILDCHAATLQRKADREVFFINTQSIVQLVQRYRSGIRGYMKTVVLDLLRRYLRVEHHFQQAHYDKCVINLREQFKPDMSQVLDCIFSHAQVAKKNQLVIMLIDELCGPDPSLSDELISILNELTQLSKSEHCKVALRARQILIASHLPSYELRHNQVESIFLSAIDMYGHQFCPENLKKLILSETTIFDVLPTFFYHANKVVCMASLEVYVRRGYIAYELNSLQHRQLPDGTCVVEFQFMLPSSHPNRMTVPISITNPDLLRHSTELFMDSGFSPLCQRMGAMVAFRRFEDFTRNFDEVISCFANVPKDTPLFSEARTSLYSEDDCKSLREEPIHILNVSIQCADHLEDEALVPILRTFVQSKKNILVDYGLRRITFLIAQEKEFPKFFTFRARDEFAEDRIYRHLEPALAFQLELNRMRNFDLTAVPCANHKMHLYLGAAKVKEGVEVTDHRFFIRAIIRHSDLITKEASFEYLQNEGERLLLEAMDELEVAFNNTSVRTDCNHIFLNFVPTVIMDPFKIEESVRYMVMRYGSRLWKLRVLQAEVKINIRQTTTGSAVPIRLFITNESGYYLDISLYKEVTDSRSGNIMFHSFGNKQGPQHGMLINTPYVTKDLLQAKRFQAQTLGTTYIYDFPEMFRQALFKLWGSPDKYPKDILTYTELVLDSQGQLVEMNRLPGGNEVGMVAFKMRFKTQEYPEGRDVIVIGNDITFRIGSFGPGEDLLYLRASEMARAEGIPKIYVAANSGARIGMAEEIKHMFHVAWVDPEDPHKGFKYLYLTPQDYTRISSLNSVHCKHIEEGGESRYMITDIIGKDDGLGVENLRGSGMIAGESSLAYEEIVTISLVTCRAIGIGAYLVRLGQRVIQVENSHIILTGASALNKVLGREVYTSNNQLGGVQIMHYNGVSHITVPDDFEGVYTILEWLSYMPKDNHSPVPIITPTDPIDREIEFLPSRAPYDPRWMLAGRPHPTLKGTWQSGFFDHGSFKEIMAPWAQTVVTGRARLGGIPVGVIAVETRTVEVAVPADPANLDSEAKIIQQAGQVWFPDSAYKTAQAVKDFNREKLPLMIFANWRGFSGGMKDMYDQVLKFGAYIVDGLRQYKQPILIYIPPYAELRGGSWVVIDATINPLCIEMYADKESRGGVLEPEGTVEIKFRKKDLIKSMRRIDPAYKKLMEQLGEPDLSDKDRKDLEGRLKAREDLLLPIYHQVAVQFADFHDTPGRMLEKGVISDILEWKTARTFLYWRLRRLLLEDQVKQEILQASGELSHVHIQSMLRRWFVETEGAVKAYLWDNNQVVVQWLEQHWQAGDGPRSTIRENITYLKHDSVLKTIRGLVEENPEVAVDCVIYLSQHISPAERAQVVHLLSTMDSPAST

[3] = biological target: acetyl-CoA carboxylase 2 (ACC2) (Homo sapiens, UniProt O00763); experiment: Human ACC2 enzyme assay, Assay A2 (HTRF ADP immunoassay);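 further: ADP generated by ACC2 quantified via competitive time-resolved FRET between europium cryptate anti-ADP antibody and d2-tagged ADP, enzyme kept in linear range near 0.6 ng/µl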
Chain of acetyl-CoA carboxylase 2 (ACC2) (O00763 39-2458 limits assumed): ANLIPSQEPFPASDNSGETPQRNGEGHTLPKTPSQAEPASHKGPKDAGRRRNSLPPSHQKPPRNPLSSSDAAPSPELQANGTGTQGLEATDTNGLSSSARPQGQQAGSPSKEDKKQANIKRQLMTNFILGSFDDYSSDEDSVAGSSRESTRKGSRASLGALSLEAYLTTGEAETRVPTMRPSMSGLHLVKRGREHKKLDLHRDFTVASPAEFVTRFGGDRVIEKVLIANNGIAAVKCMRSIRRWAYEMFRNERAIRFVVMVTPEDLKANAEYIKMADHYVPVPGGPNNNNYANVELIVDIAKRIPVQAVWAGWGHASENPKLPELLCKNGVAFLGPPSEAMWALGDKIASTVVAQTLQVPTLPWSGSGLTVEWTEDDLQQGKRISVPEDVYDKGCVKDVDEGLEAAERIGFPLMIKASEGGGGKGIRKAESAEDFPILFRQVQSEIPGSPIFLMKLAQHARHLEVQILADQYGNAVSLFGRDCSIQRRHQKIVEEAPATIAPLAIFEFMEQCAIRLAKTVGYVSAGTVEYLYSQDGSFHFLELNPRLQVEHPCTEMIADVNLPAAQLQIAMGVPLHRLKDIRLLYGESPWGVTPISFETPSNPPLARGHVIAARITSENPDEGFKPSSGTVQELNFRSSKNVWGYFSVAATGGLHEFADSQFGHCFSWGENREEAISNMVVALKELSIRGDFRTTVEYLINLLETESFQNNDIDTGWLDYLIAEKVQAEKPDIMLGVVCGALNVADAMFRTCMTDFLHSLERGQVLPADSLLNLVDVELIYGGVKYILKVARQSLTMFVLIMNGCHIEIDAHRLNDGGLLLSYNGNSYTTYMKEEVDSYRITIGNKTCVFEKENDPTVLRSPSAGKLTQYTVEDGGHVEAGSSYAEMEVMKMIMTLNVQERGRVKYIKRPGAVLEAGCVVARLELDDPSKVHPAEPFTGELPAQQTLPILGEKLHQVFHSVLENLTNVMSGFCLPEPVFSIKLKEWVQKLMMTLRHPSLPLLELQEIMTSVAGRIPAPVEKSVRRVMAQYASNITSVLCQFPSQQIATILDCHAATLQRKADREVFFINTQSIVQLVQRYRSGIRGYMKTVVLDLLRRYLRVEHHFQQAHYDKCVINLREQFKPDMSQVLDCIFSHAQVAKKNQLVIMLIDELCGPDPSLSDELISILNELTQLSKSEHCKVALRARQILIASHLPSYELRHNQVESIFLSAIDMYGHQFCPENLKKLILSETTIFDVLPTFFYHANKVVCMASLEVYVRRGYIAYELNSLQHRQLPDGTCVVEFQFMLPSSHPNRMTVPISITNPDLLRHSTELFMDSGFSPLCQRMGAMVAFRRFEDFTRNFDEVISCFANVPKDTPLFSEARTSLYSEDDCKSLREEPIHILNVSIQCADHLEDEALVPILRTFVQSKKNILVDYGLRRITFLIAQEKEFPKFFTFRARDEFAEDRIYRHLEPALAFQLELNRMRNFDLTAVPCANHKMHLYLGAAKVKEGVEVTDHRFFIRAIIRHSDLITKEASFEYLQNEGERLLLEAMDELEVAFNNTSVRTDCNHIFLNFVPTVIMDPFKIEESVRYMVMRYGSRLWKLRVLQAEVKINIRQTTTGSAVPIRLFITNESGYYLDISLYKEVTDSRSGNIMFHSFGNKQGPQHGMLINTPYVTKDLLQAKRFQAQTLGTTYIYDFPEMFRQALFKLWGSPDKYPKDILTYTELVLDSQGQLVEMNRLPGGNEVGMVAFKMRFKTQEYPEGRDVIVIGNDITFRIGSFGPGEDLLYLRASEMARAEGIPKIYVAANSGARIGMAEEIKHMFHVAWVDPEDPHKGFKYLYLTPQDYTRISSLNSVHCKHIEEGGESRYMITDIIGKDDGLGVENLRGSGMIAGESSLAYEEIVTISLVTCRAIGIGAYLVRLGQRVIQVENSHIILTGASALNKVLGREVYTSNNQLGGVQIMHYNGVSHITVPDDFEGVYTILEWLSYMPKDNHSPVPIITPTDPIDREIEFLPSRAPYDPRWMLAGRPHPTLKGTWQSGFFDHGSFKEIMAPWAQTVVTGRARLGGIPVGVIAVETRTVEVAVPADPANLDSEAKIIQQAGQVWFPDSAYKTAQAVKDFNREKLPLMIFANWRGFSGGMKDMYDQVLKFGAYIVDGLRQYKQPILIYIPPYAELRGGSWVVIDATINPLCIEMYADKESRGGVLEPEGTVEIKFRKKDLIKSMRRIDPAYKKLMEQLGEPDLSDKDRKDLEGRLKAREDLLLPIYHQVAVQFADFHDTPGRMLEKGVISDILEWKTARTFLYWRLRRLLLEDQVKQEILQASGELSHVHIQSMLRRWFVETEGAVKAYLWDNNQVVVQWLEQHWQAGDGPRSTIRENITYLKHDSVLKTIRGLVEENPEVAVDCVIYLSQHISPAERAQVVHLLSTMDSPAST

[4] = Assay B1, read-out: ACC 1 (=B1) IC50

Row | SMILES | IC50 (MCF7) [nM] | IC50 (recombinant human ACC1) [nM] | IC50 [1, 4] [nM] | IC50 [2] [nM] | IC50 [3] [nM] | IC50 [1] [nM]
1 | Cc1cc(F)c(-c2ccc(Cl)c(F)c2)cc1C1=C(O)C2(CCC(C(F)(F)F)CC2)NC1=O (mixture of isomers) [1-94, 3-(4′-Chloro-3′,6-difluoro-4-methylbiphenyl-3-yl)-4-hydroxy-8-(trifluoromethyl)-1-azaspiro[4.5]dec-3-en-2-one] | 85 | 73 | 99 | 2030 | 873 | –
2 | Cc1cc(F)c(-c2ccc(Cl)cc2)cc1C1=C(O)C2(CCC(C(F)(F)F)CC2)NC1=O (mixture of isomers) [1-100, 3-(4′-Chloro-6-fluoro-4-methylbiphenyl-3-yl)-4-hydroxy-8-(trifluoromethyl)-1-azaspiro[4.5]dec-3-en-2-one] | 127 | 91 | – | 2470 | 988 | 96
3 | Cc1ccc(-c2ccc(Cl)c(F)c2)cc1C1=C(O)[C@]2(CC[C@H](C(F)(F)F)CC2)NC1=O [1-90, (5s,8s)-3-(4′-Chloro-3′-fluoro-4-methylbiphenyl-3-yl)-4-hydroxy-8-(trifluoromethyl)-1-azaspiro[4.5]dec-3-en-2-one] | – | 143 | 63 | 595 | 331 | –
4 | Cc1c(F)cc(-c2ccc(Cl)cc2)cc1C1=C(O)[C@]2(CC[C@H](C(F)(F)F)CC2)NC1=O [1-91, (5s,8s)-3-(4′-Chloro 5 fluoro 4-methylbiphenyl-3-yl)-4-hydroxy-8-(trifluoromethyl)-1-azaspiro[4.5]dec-3-en-2-one] | – | 302 | – | 4990 | 5010 | 266
5 | O=C1N[C@]2(CC[C@@H](C(F)(F)F)CC2)C(O)=C1c1cc(-c2ccc(Cl)c(F)c2)ccc1Cl [1-92, (5s,8s)-3-(4,4′-Dichloro-3′-fluorobiphenyl-3-yl)-4-hydroxy-8-(trifluoromethyl)-1-azaspiro[4.5]dec-3-en-2-one] | – | 226 | – | 1660 | 1450 | 72
6 | Cc1ccc(-c2ccc(Cl)c(F)c2)c(C)c1C1=C(O)[C@]2(CC[C@H](C(F)(F)F)CC2)NC1=O [1-93, (5s,8s)-3-(4′-Chloro-3′-fluoro-2,4-dimethylbiphenyl-3-yl)-4-hydroxy-8-(trifluoromethyl)-1-azaspiro[4.5]dec-3-en-2-one] | 78 | 301 | – | 4010 | 876 | 217
7 | Cc1ccc(-c2ccc(Cl)cc2)c(C)c1C1=C(O)[C@]2(CC[C@H](C(F)(F)F)CC2)NC1=O [1-95, (5s,8s)-3-(4′-Chloro-2,4-dimethylbiphenyl-3-yl)-4-hydroxy-8-(trifluoromethyl)-1-azaspiro[4.5]dec-3-en-2-one] | 88 | 378 | 383 | 2410 | 393 | –
8 | Cc1c(F)cc(-c2ccc(F)c(F)c2)cc1C1=C(O)[C@]2(CC[C@H](C(F)(F)F)CC2)NC1=O [1-96, (5s,8s)-4-Hydroxy-8-(trifluoromethyl)-3-(3′,4′,5-trifluoro-4-methylbiphenyl-3-yl)-1-azaspiro[4.5]dec-3-en-2-one] | 108 | 416 | 238 | > 20000 | > 20000 | –
9 | Cc1cc(C)c(-c2ccc(Cl)cc2)cc1C1=C(O)C2(CCC(C(F)(F)F)CC2)NC1=O (centres unmarked) [1-97, 3-(4′-Chloro-4,6-dimethylbiphenyl-3-yl)-4-hydroxy-8 (trifluoromethyl)-1-azaspiro[4.5]dec-3-en-2-one] | 155 | 1940 | – | 269 | 138 | 1110
10 | Cc1cc(C)c(-c2ccc(Cl)cc2)cc1C1=C(O)[C@]2(CC[C@H](C(F)(F)F)CC2)NC1=O [1-98, (5s,8s)-3-(4′-Chloro-4,6-dimethylbiphenyl-3-yl)-4-hydroxy-8-(trifluoromethyl)-1-azaspiro[4.5]dec-3-en-2-one] | 99 | 2190 | – | 174 | 204 | 1040
11 | O=C1N[C@]2(CC[C@@H](C(F)(F)F)CC2)C(O)=C1c1cc(-c2ccc(F)c(F)c2)ccc1Cl [1-99, (5s,8s)-3-(4 Chloro-3′,4′-difluorobiphenyl-3-yl)-4-hydroxy-8-(trifluoromethyl)-1-azaspiro[4.5]dec-3-en-2-one] | 120 | 327 | – | 11300 | 6670 | 207
12 | Cc1ccc(-c2ccc(F)c(F)c2)c(C)c1C1=C(O)[C@]2(CC[C@H](C(F)(F)F)CC2)NC1=O [1-101, (5s,8s)-3-(3′,4′-Difluoro-2,4-dimethylbiphenyl-3-yl)-4-hydroxy-8-(trifluoromethyl)-1-azaspiro[4.5]dec-3-en-2-one] | 272 | 460 | – | 10500 | 6070 | 650
13 | Cc1c(F)cc(-c2ccc(Cl)c(F)c2)cc1C1=C(O)[C@]2(CC[C@H](C(F)(F)F)CC2)NC1=O [1-102, (5s,8s)-3-(4′-Chloro-3′,5-difluoro-4-methylbiphenyl-3-yl)-4-hydroxy-8-(trifluoromethyl)-1-azaspiro[4.5]dec-3-en-2-one] | 79 | 214 | – | 3820 | 2950 | 243
14 | CO[C@H]1CC[C@]2(CC1)NC(=O)C(c1cc(-c3ccc(Cl)c(F)c3)ccc1Cl)=C2O [1-103, (5s,8s)-3-(4,4′-Dichloro-3′-fluorobiphenyl-3-yl)-4-hydroxy-8-methoxy-1-azaspiro[4.5]dec-3-en-2-one] | 119 | 151 | – | 4260 | 1180 | 102
15 | CO[C@H]1CC[C@]2(CC1)NC(=O)C(c1cc(-c3ccc(F)c(F)c3)ccc1Cl)=C2O [1-104, (5s,8s)-3-(4 Chloro-3′,4′-difluorobiphenyl-3-yl)-4-hydroxy-8-methoxy-1-azaspiro[4.5]dec-3-en-2-one] | 455 | 329 | – | > 20000 | 17900 | 270
16 | CO[C@H]1CC[C@]2(CC1)NC(=O)C(c1cc(-c3ccc(Cl)c(F)c3)cc(F)c1C)=C2O [1-105, (5s,8s)-3-(4′-Chloro-3′,5-difluoro-4-methylbiphenyl-3-yl)-4-hydroxy-8-methoxy-1-azaspiro[4.5]dec-3-en-2-one] | 106 | 360 | – | 8940 | 5560 | 165
17 | CO[C@H]1CC[C@]2(CC1)NC(=O)C(c1cc(-c3ccc(Cl)cc3)cc(F)c1C)=C2O [1-106, (5s,8s)-3-(4′-Chloro 5 fluoro 4-methylbiphenyl-3-yl)-4-hydroxy-8-methoxy-1-azaspiro[4.5]dec-3-en-2-one] | 155 | 439 | – | 5850 | 4360 | 207
18 | CO[C@H]1CC[C@]2(CC1)NC(=O)C(c1cc(-c3ccc(F)c(F)c3)cc(F)c1C)=C2O [1-107, (5s,8s)-4-Hydroxy-8-methoxy-3-(3′,4′,5-trifluoro-4-methylbiphenyl-3-yl)-1-azaspiro[4.5]dec-3-en 2-one] | 267 | 804 | – | > 20000 | > 20000 | 376
19 | CO[C@H]1CC[C@]2(CC1)NC(=O)C(c1cc(-c3ccc(Cl)c(F)c3)c(Cl)cc1C)=C2O [1-108, (5s,8s)-3-(4′,6-Dichloro-3′-fluoro-4-methylbiphenyl-3-yl)-4-hydroxy-8-methoxy-1-azaspiro[4.5]dec-3-en-2-one] | 76 | 460 | – | 753 | 346 | 204
20 | CO[C@H]1CC[C@]2(CC1)NC(=O)C(c1c(C)ccc(-c3ccc(Cl)cc3)c1C)=C2O [1-121, (5s,8s)-3-(4′-Chloro-2,4-dimethylbiphenyl-3-yl)-4-hydroxy-8-methoxy-1-azaspiro[4.5]dec-3-en-2-one] | 233 | 402 | – | 1010 | – | 172
21 | O=C1NC2(CCCCC2)C(O)=C1c1cc(-c2ccc(Cl)cc2)ccc1Cl [1-140, 3-(4,4′-Dichlorobiphenyl-3-yl)-4-hydroxy-1-azaspiro[4.5]dec-3-en-2-one] | 73 | 323 | – | – | 1520 | –
22 | Cc1ccc(-c2ccc(F)c(F)c2)cc1C1=C(O)[C@]2(CC[C@H](C)CC2)NC1=O [1-145, (5s,8s)-3-(3′,4′-Difluoro-4-methylbiphenyl-3-yl)-4-hydroxy-8-methyl-1-azaspiro[4.5]dec-3-en-2-one] | 273 | 194 | – | – | 3310 | –
23 | CCc1cc(C)cc(Br)c1C1=C(O)C2(CCCCC2)NC1=O [V-4, reference compound] | – | 5400 | – | – | > 20000 | –
